Test results published in ChEMBL document CHEMBL3112560 (Bioorg Med Chem Lett, 2014).

Tests used:
[1] = Inhibition of VGLUT-mediated [3H]-L-Glu uptake into synaptic vesicles in rat brain; assay type: tissue-based
[2] = species on record: Rattus norvegicus; assay: Inhibition of VGLUT in rat brain assessed as [3H]-L-Glu uptake into synaptic vesicles at 250 uM relative to control; assay type: tissue-based
[3] = Inhibition of VGLUT (unknown origin); set-up: species or system Homo sapiens
[4] = Competitive inhibition of VGLUT-mediated [3H]-L-Glu uptake into synaptic vesicles in rat brain by Lineweaver-Burk plot analysis; assay type: tissue-based

## O=C(O)c1cc(C(=O)O)c2c(ccc3cc4ccccc4cc32)n1
[1]
  IC50: 71 µM
[2]
  inhibition: 17%

## N[C@@]1(C(=O)O)CC[C@@H](C(=O)O)C1
[3]
  Ki: 700 µM

## O=C(O)c1cc(C(=O)O)c2ccc3cc4ccccc4cc3c2n1
[1]
  IC50: 70 µM
[2]
  inhibition: 26%

## CC(=O)[C@H]1CC[C@H]2[C@@H]3CC[C@@H]4C[C@@H](OS(=O)(=O)O)CC[C@]4(C)[C@H]3CC[C@]12C
[1]
  IC50: 42 µM
[2]
  inhibition: 15%
[4]
  Ki: 22 µM

## C[C@]12CC[C@@H]3c4ccc(O)cc4CC[C@H]3[C@@H]1CCC2=O
[2]
  inhibition: 98%

## CC(=O)O[C@H]1CC[C@@]2(C)C(=CC[C@H]3[C@@H]4CC[C@H](C(C)=O)[C@@]4(C)CC[C@@H]32)C1
[2]
  inhibition: 86%

## C[C@]12CC[C@@H]3c4ccc(OC(=O)CCC(=O)O)cc4CC[C@H]3[C@@H]1CCC2=O
[2]
  inhibition: 109%

## Cc1cc(-c2ccc(/N=N/c3c(S(=O)(=O)O)cc4cc(S(=O)(=O)O)cc(N)c4c3O)c(C)c2)ccc1/N=N/c1c(S(=O)(=O)O)cc2cc(S(=O)(=O)O)cc(N)c2c1O [TRYPAN BLUE]
[3]
  Ki: 0.05 µM

## CC(=O)C1CCC2C3CC=C4CC(OS(=O)(=O)O)CCC4(C)C3CCC12C (centres undefined)
[2]
  inhibition: 31%

## CC(=O)[C@H]1CC[C@H]2[C@@H]3CC=C4C[C@@H](O)CC[C@]4(C)[C@H]3CC[C@]12C
[2]
  inhibition: 100%
